This passage reports IC50 results from BindingDB's records for doi:10.1080/14756360903179484 (University of Karachi, 2010).

For the experiment, the target named is T1, Seed linoleate 13S-lipoxygenase-1 (Glycine max, UniProt P08170).
T1 sequence (P08170 whole entry): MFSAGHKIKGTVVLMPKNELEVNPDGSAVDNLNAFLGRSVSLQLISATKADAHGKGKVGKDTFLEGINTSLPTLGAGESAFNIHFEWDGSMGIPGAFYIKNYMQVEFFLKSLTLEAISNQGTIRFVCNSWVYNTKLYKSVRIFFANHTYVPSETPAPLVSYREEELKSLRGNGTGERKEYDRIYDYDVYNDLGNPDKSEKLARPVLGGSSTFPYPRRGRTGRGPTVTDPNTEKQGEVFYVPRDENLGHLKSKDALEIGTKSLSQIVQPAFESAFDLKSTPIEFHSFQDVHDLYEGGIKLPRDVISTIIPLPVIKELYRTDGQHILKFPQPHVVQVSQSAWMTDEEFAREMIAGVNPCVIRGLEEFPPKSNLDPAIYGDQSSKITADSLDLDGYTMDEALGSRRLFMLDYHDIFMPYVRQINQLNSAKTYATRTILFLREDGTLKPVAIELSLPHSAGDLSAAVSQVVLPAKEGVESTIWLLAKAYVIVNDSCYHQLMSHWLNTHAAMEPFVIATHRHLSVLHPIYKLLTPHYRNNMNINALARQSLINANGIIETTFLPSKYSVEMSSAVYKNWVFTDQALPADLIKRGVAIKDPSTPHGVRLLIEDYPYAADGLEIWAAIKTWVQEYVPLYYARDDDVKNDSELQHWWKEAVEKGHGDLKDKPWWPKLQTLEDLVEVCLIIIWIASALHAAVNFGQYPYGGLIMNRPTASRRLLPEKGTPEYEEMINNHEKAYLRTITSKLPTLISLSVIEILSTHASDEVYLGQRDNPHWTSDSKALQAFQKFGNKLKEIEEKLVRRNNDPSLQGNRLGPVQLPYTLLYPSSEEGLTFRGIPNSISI
The experiment in a line: Lipoxygenase Inhibition Assay. The note with it: pH 8; 25 °C. As to the method: A mixture of test compound (10 μL; 1 mM) in MeOH, type-1B lipoxygenase (EC 1.13.11.12; from soyabean) (20 μL; 70 units) in 0.1 M aqueous phosphate buffer (pH 8.0) in a total volume of 160 μL was incubated for 10 min at 25°C. Then the reaction was initiated by the addition of a solution of linoleic acid as substrate (10 μL; 20 μM), resulting in the formation of (9Z,11E,13S)-13-hydroperoxyoctadeca-9,11-dienoate. The change in UV absorbance at 234 nm was followed over a period of 6 min. All reactions were performed in triplicate, and analyzed with a 96-well plate reader (SpectraMax Plus 384; Molecular Devices).

Compound `COc1ccc(-c2coc3cc(O)cc(O)c3c2=O)cc1` [5,7-dihydroxy-3-(4-methoxyphenyl)-4H-chromen-4-one] yielded an IC50 of 100 µM.

Compound `COc1cc(-c2coc3cc(O)c(O)cc3c2=O)ccc1O` [Conferin (1)] gave an IC50 of 55.2 µM.
